Key:
[1] = target: T1, calpain-2 (Mus musculus, UniProt O08529); test: Calpain-2 activity after TBI in mice (i.p. dosing); type: in vivo; design: from tissue; host or cells: cerebellar P2 fractions / brain of wild-type mice after TBI
T1 sequence (O08529 1-700): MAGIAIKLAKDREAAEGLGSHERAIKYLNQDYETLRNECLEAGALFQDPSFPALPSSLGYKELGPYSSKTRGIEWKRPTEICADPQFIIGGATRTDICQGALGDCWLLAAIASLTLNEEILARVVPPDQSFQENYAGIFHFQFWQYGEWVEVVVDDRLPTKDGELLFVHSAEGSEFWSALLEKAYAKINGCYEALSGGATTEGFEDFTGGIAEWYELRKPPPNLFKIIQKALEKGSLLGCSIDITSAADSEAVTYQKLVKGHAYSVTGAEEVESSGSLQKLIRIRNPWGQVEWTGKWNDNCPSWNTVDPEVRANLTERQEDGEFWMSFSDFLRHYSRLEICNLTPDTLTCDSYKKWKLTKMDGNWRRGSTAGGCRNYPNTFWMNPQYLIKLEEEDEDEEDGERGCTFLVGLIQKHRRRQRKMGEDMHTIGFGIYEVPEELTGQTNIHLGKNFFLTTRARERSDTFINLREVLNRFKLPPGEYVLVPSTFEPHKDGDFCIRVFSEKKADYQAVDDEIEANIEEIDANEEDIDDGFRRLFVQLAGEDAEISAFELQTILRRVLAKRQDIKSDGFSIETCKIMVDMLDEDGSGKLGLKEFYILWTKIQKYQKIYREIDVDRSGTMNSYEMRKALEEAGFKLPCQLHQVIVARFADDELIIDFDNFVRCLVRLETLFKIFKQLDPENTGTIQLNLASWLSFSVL
T1 sequence (O88456 1-268 partner): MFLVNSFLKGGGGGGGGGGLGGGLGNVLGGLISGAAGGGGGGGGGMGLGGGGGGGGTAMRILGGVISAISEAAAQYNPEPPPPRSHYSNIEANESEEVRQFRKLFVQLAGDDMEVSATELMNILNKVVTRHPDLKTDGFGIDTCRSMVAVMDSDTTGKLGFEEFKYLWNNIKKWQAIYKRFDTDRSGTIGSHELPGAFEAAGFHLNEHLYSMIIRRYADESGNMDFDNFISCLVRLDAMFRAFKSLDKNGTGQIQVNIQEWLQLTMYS
Procedure: Calpain activity in cerebellar P2 fractions was measured 24 h after traumatic brain injury (TBI) in adult wild-type mice and the assay results for calpain-1 and calpain-2 are shown in FIG. 2. 0.1 or 1 mg/kg of NA112 was injected intraperitoneally 1 h after TBI. Each measurement of in vivo selectivity was obtained as follows: • Calpain-1 activity: Calpain activity with 20 μM Ca^2+. Normalized to Vehicle. • Calpain-2 activity: Calpain activity with 5 mM Ca^2+ minus Calpain activity with 20 μM Ca^2+. Results are means S.E.M. of 3 experiments.
Calpain activity in cerebellar P2 fractions was measured 24 h after TBI in adult WT mice, and vehicle or 0.1 or 1 mg/kg of NA112 (12) dissolved in DMSO or liposomal formulation (lipo) was injected intraperitoneally 1 h after TBI. […]
Vehicle (DMSO or liposomes) or 0.1 or 1 mg/kg of NA112 (12) dissolved in DMSO or liposomal formulation (lipo) was injected intraperitoneally 1 h after TBI in WT mice. Calpain activity was measured 24 h later in cerebellar P2 fractions. Calpain-1 activity was measured in the presence of 20 μM calcium and calpain-2 activity was measured as the difference between calpain activity measured in the presence of 5 mM calcium and that measured in the presence of 20 μM calcium (FIG. 11). In both cases, calpain activity was normalized to the values measured in vehicle-treated mice. […]

[2] = test system: TUNEL-positive cells; test: TUNEL staining of brain 24 h after TBI in WT mice; type: in vivo
Procedure: Quantification of TUNEL staining 24 h after TBI plus i.p. injection of NA112 at 0.1 or 1.0 mg/kg. Total numbers of TUNEL-positive cells in 3 coronal sections (Bregma 0.50, −0.58, −1.58 mm) of each brain were counted and averaged. Results are means S.E.M. of 3 animals. * p<0.05 vs Vehicle. One-way ANOVA followed by Bonferroni test.
Vehicle (control liposomes) or 0.1 or 1 mg/kg of NA112 dissolved in liposomal formulation was injected 1 h after TBI in WT mice. Animals were sacrificed 24 h later and brains were stained with TUNEL staining to analyze the extent of cell death.
The number of TUNEL-positive cells in images similar to those shown in FIG. 12 was quantified (FIG. 13). Results in FIG. 13 are Means±S.E.M. of 3 different animals.
Quantification of TUNEL staining 24 h after TBI plus i.p. injection of WT mice with NA184 at indicated doses 1 h after TBI. Total numbers of TUNEL-positive cells in 3 coronal sections (Bregma 0.50, −0.58, −1.58 mm) of each brain were counted and averaged. Results are means±S.E.M. of 3-6 animals. * p<0.05, ** p<0.01, vs Vehicle. One-way ANOVA followed by Bonferroni test (FIG. 20).

Structure (SMILES)	Calpain-2 inhibition, DMSO vs liposomes ([1]; 0.1 or 1 mg/kg i.p. 1 h after TBI, cerebellar P2 fractions 24 h after TBI)	TUNEL staining ([2]; liposomal formulation, 0.1 or 1 mg/kg 1 h after TBI, 24 h later)	Calpain-2 inhibition in brain, male and female mice ([1]; 1 mg/kg i.p., 24 h after TBI)	ED50 ([2]; Mus musculus, ip, i.p. 1 h after TBI, DMSO solution, TUNEL 24 h after TBI)
CCC(NC(=O)[C@H](CC(C)C)NC(=O)NCc1ccccc1)C(=O)C(=O)NCc1cc(OC)cc(OC)c1 (mixture of isomers) [NA112, (2S)-2-(3-benzylureido)-N-(1-((3,5-dimethoxybenzyl)amino)-1,2-dioxopentan-3-yl)-4-methylpentanamide]	same degree of calpain-2 inhibition	decrease in TUNEL staining		
CCC(NC(=O)[C@H](CC(C)C)NC(=O)NCc1ccccc1)C(=O)C(=O)NCc1cccc(Cl)c1OC (stereo partly drawn) [NA184, (2S)-2-(3-benzylureido)-N-(1-((3-chloro-2-methoxybenzyl)amino)-1,2-dioxopentan-3-yl)-4-methylpentanamide]			significantly inhibited calpain-2	~0.13 mg/kg

From patent US12606520B2, “Calpain-2 inhibitor compounds and methods of treatment” (WESTERN UNIVERSITY OF HEALTH SCIENCES, priority 2020, dated 2026)
